Laboratory results: patent US20170319572A1, “COMBINATION DRUG TREATMENT FOR HEPATITIS C INFECTION” (JANSSEN PHARMACEUTICALS, INC., priority 2015, published 2017)
Entries after “also recorded” stand apart in the source; their conditions may differ.

How the values were obtained:
[1] = Drug-drug interaction study in humans (Phase-1, open-label, two-group, fixed-sequence, PK); details: for increase of exposure caused by Odalasvir: co-administration of Odalasvir; for increase of exposure caused by SMV: co-administration of SMV
Experimental: A drug-drug interaction study (DDI) study is a study designed to investigate whether a drug alters the pharmacokinetics of another drug or drugs or their metabolites.
Compound (III)—Subjects received 800 mg of Compound (III) once daily from Days 1-3, Days 11-13, and Days 21-23. PK blood samples for determination of Compound (III) and metabolite concentrations were collected in reference to the Day 3, Day 13, and Day 23 doses.
Simeprevir—Subjects received 150 mg of Simeprevir (SMV) once daily from Days 4-23. PK blood samples for determination of SMV concentrations were collected in reference to the Day 10, Day 13, Day 20, and Day 23 doses.
Odalasvir—Subjects received a loading dose of 150 mg on Day 14, and 50 mg of Odalasvir once daily from Days 15-23. PK blood samples for determination of Odalasvir concentrations were collected in reference to the Day 20 and Day 23 doses.
Compound (III)—Subjects received 800 mg of Compound (III) once daily from Days 1-3, Days 11-13 and Days 21-23. PK blood samples for determination of Compound (III) and metabolite concentrations were collected in reference to the Day 3, Day 13, and Day 23 doses.
Simeprevir—Subjects receive 150 mg of SMV once daily from Days 4-23. PK blood samples for determination of SMV concentrations were collected in reference to the Day 20 and Day 23 doses.
Odalasvir—Subjects receive a loading dose of 150 mg on Day 4, and 50 mg of Odalasvir once daily from Days 5-23. PK blood samples for determination of Odalasvir concentrations were collected in reference to the Day 10, Day 13, Day 20, and Day 23 doses.
This drug-drug interaction study was intended to assess the safety and tolerability of the described drug combinations at pre-defined time points throughout the study. Study completion/follow-up visit(s) were performed 7 and 28 days after completion of the last study assessment.
A primary objective was to evaluate the effect of multiple oral doses of Odalasvir (alone), Simeprevir (alone), and Odalasvir and Simeprevir on the multiple oral dose PK of Compound (III) (and certain metabolites thereof, such as the major metabolites in systemic circulation) in healthy volunteers. Other objectives were to evaluate the safety and tolerability of multiple oral doses of Compound (III) when administered alone and in combination with single and multiple oral doses of Odalasvir and/or Simeprevir in healthy volunteers; to determine the potential effect of Compound of Compound (III) and/or Odalasvir on the steady-state PK of Simeprevir in healthy volunteers; to determine the potential effect of Compound of Compound (III) and/or Simeprevir on the steady state PK of Odalasvir in healthy volunteers.
Various other PK parameters were estimated including: Clast, t1/2, Tmax, Tlast, CL/F, Vz/F, and λz.
The following daily doses were employed:
Odalasvir: 150 mg loading dose; 50 mg for the remainder of the study period.

[2] = Phase 2a open-label combination study, pharmacokinetics and safety; type: in vivo, human; details: for change of exposure on reducing SMV dosing from 100 mg to 75 mg QD: in vivo
Experimental: A randomized, Phase 2a, open-label study was carried out to evaluate the safety, pharmacokinetics and efficacy of the combination of Compound (III), Odalasvir and Simeprevir in Genotype 1 treatment-naïve subjects with chronic hepatitis C. Other treatment-naïve subjects included Genotype 2, 3, 4, 5 and 6. The aim of the study was to determine the efficacy, pharmacokinetics (PK), and safety of Compound (III)+Odalasvir±SMV in HCV-infected subjects. […] Efficacy, PK and safety evaluations were conducted during and through 24 weeks post dosing. Up to 15 cohorts were enrolled; data was generated from cohorts that have completed dosing.

[3] = SMV co-administered with Digoxin (a pgp-substrate); cited from earlier work
[4] = SMV co-administered with Rosuvastatin (substrate of OATPs & BCRP); cited from earlier work
[5] = biological target: Pgp (Homo sapiens, UniProt P08183); details: cited from earlier work
Chain of Pgp (P08183 whole entry): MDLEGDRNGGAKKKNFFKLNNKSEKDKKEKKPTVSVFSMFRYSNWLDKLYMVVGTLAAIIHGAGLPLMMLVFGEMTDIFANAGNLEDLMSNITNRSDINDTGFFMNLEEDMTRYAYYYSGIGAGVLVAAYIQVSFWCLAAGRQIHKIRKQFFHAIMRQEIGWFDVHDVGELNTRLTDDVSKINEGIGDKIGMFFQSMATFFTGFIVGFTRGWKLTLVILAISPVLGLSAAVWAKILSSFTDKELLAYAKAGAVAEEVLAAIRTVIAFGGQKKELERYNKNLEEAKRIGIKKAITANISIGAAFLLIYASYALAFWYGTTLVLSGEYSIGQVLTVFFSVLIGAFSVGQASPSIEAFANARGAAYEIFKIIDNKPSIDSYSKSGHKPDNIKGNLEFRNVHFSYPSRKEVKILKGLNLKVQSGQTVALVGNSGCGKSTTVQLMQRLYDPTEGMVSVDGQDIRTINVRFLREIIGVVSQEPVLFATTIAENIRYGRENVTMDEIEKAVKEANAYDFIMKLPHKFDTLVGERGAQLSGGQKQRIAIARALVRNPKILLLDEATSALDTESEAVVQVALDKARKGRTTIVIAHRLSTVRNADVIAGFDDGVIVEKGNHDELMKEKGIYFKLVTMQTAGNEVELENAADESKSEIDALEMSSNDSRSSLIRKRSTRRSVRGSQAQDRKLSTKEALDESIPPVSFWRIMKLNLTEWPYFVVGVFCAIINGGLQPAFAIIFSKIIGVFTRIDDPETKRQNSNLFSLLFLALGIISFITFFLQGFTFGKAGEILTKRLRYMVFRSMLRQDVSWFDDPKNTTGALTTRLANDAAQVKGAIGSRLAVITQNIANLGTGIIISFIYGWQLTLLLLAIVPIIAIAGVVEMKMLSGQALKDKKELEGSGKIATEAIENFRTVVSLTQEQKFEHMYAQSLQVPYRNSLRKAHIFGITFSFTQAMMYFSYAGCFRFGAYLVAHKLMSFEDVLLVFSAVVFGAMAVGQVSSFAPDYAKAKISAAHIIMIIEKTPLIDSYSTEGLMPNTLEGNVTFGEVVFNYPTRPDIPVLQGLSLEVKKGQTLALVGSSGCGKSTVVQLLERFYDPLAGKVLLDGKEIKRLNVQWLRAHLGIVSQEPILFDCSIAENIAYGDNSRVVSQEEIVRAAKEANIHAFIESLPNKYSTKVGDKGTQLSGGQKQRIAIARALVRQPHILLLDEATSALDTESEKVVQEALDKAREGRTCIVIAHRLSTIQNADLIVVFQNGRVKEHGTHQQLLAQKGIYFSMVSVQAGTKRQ

[6] = test system: NTCP; details: printed: other OATPs NTCP; read-out: NTCP inhibition IC50; cited from earlier work
[7] = test system: CYP (any CYP); assay: CYP inhibition; details: on any CYP

| increase of exposure caused by Odalasvir ([1]; DDI study) | increase of exposure caused by SMV ([1]; DDI study) | increase of exposure, effect of the three Compounds ([1]; DDI study, Compound (III) + SMV + Odalasvir together) | increase of exposure in the combination ([1]; human in vivo study (Example 1), three drugs combined) | increase of bioavailability by ODV ([1]; human subjects) | CYP inhibition potential [7] | SMILES | change of exposure on increasing Compound (III) dose from 400 to 800 mg ([2]; HCV patients) | effect of Compound (III) on exposure/bioavailability ([1]; DDI study, co-administration of Compound (III)) | observed exposure in Cohort 1 / group (i) ([2]; Compound (III) 400 mg, ODV 50 mg QD, SMV 100 mg QD) | change of exposure on reducing SMV dosing from 100 mg to 75 mg QD [2] | change of exposure on reducing SMV dosing from 100 mg to 75 mg QD ([2]; listed as Simeprevir) | increase in exposure of Digoxin [3] | increase in Rosuvastatin exposure [4] | in vitro inhibition of Pgp [5] | IC50 [6] |
| --- | --- | --- | --- | --- | --- | --- | --- | --- | --- | --- | --- | --- | --- | --- | --- |
| 1.5 × | no apparent effect | – | – | – | – | C[C@]1(O)[C@H](n2ccc(=O)[nH]c2=O)O[C@](F)(CO)[C@H]1O [Compound A-1] | less than proportionally | – | – | – | – | – | – | – | – |
| 2.6 × | 1.6 × | – | – | – | – | C[C@H](NP(=O)(O)OC[C@@]1(F)O[C@@H](n2ccc(=O)[nH]c2=O)[C@](C)(O)[C@@H]1O)C(=O)O [Compound A-3] | – | – | – | – | – | – | – | – | – |
| 1.6 × | – | 1.6 × | 1.6 times | 1.6 fold | limited | COc1ccc2c(O[C@@H]3C[C@H]4C(=O)N[C@]5(C(=O)NS(=O)(=O)C6CC6)C[C@H]5/C=C\CCCCN(C)C(=O)[C@@H]4C3)cc(-c3nc(C(C)C)cs3)nc2c1C [SMV, Simeprevir, reference compound] | – | no apparent effect; also recorded: does not alter the bioavailability | higher than anticipated | decreased SMV exposure less than proportionally | decreased Simeprevir exposure less than proportionally | 35% | 3 fold | strong/moderate in vitro inhibition | 2200 nM |
